Test results taken from patent US20050004037A1, “Osteogenic growth oligopeptides as stimulants of hematopoiesis” (Yissum Research Development Company of the Hebrew …, priority 2001, published 2005).
Ends that are not written are not given here.

What was measured:
[1] = Evaluation of OGP(10-14) toxicity after 15 days of subcutaneous administration; type: in vivo, mice; conditions: 10 nmol/mouse s.c., versus placebo-treated controls
Experimental: Fifty-five mice were evaluated for possible OGP(10-14)-related toxicity after 15 days of subcutaneous administration, at the dose of 10 nmol/mouse, and results were compared to those obtained in 30 placebo-treated controls.

[2] = test system: white blood cells, monocytes, immature cells; assay: Total and differential blood cell counts after cyclophosphamide (CFA) chemoablation; type: in vivo, mice; conditions: CFA-induced aplasia
Experimental: FIGS. 2A-C—OGP(10-14) stimulates blood cell counts in dose and time dependent manner in mice undergoing chemoablation of hematopoietic tissues Male ICR mice weighing 25 gm each were subjected to chemoablation using cyclophosphamide (CFA), 5 mg/mouse, injected intraperitoneally on days 0 and 1, one injection each day. OGP(10-14) was dissolved in “sterile water for injection” and 0.1 ml of the indicated doses or water only (vehicle) was administered subcutaneously in the nape daily from day −7 to day −1 and from day +2 to day +8. Data are mean±SD obtained in 20 animals per condition. *: significant over CFA+vehicle, p<0.05; **: significant over 1 nmol OGP(10-14) group, p<0.05.
In this set of experiments bone marrow ablation was induced by an intraperitoneal injection of cyclophophamide (CFA, SIGMA, 5 mg/mouse in 150 (1 sterile PBS) for two consecutive days (designated “day 0” and “day 1”. This protocol has been demonstarted to induce severe, reversible leucopoena with L. D. <30 [Spangrude, G. J. et al, Science, 241:58 (1988)]. The lowest bone marrow cell counts were recorded six days after the first injection. […]

[3] = test system: CFU-GM, CFU-GEMM and BFU-E; assay: Ex vivo progenitor cell (colony forming) assays on bone marrow of treated chemoablated mice; type: in vivo; conditions: bone marrow of CFA-ablated mice, 10 nmol/day s.c.
Experimental: Male ICR mice weighing 25 gm each were subjected to chemoablation using cyclophosphamide (CFA), 5 mg/mouse, injected intraperitoneally on days 0 and 1, one injection each day. OGP(10-14) was dissolved in “sterile water for injection” at 100 nmol/ml concentration and 0.1 ml of this solution or water only (vehicle) was administered subcutaneously in the nape daily for the indicated period(s). Bone marrow was harvested on day 9 and analyzed for colony forming units. Data are meam±SD obtained in 10 animals per condition.
To evaluate different dosing regimens of OGP(10-14), chemoablated mice were subjected to daily treatment with OGP(10-14), as outlined in FIG. 4. The mice were sacrificed on day +15, the femoral bone marrow was flushed and single cell suspensions (prepared as above) were subjected to ex vivo progenitor cell (colony forming) assays. The OGP(10-14) effect on the formation of CFU-GM, CFU-GEMM and BFU-E was compared to that of G-CSF (FIG. 4).
Bone marrow cells were recovered on day +10 after injection of CFA from all groups. Cells were diluted to 2×10^6/ml in Iscove's Modified Dulbecco Medium(IMFM) with 2% FBS and added to methylcellulose medium according to the manufacturer's recommendations (MethoCult, StemCell Technologies Inc., Vancouver, Canada). 2×10^4 cells were plated in each test. Both M3434 (for murine GM-CFU, and GEMM-CFU) and M3334 for (murine BFU-E assay) were used. M3434 was supplemented with recombinant murine interleukine-3 (rmIL-3, 10 ng/ml), recombinant human interleukine-6 (rhIL-6, 10 ng/ml), recombinant murine stem cell factor (rmSCF, 50 ng/ml) and recombinant human erythropoietin (rhEpo, 3 U/ml). […] the only factor included was Epo. Duplicate tests for each mouse were blindly examined after 14 days of incubation according to the protocol procedures.

[4] = OGP(10-14) effect only where treatment began 7 days before chemoablation

Row | Molecule | haematological parameters: number of WBC, RBC, PLT, Hb level [1] | survival, behaviour, body weight gain and gross examination [1] | toxicity at the employed doses [2] | CFU-GM [3] | BFU-E [3, 4] | CFU-GEMM [3, 4]
1 | YGFGG [OGP(10-14), Tyr-Gly-Phe-Gly-Gly] | did not induce any significant modifications | No differences were found | without any valuable toxicity |  |  | 
2 | G-CSF: granulocyte colony-stimulating factor, positive reference (protein, UniProt P09919 31-207, looked up) Granulocyte …: TPLGPASSLPQSFLLKCLEQVRKIQGDGAALQEKLVSECATYKLCHPEELVLLGHSLGIPWAPLSSCPSQALQLAGCLSQLHSGLFLYQGLLQALEGISPELGPTLDTLQLDVADFATTIWQQMEELGMAPALQPTQGAMPAFASAFQRRAGGVLVASHLQSFLEVSYRVLRHLAQP |  |  |  | had an effect | effect only on the CFU-GM | effect only on the CFU-GM
